The values that follow come from BindingDB's records for doi:10.1021/np0604580 (University of California - San Diego, 2007).

The target of the test is T1, Ornithine decarboxylase (Homo sapiens, UniProt P11926).
T1 sequence (P11926 whole entry): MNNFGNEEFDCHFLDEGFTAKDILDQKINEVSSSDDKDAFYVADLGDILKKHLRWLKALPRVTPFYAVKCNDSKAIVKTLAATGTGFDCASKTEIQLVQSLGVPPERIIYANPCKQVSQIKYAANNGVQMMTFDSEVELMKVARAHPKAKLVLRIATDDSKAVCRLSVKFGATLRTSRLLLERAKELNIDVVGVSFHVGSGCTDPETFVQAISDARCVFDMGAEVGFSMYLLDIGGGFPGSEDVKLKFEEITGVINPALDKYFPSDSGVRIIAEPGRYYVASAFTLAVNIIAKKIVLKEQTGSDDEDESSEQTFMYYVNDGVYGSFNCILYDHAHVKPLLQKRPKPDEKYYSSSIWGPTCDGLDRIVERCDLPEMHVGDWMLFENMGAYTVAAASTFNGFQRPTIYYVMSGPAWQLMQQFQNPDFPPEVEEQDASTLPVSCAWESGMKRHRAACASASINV
The test is described as follows: Inhibition of TPA-induced ornithine decarboxylase expressed in T24 cells.

Each structure is given as a SMILES string.

The IC50 is the concentration that gives 50% inhibition. With `C/C(=C/C=C/[C@H](C)[C@H](O)[C@@H](C)[C@@H](O)[C@@H](C)[C@@H]1O[C@@]2(C)CC[C@@H](O2)[C@H]1C)C(N)=O` [SALINIKETAL A], 5.05 µM corresponded to half-maximal inhibition (IC50).

Consider `C[C@H]([C@H](O)[C@H](C)[C@@H](O)[C@@H](C)/C=C/C=C(/CO)C(N)=O)[C@@H]1O[C@@]2(C)CC[C@@H](O2)[C@H]1C` [SALINIKETAL B], for which the 50% inhibitory concentration (IC50) stood at 18.9 µM.
